The target of assay [1] is T1, Tyrosinase (Agaricus bisporus, UniProt O42713).
T1 sequence (O42713 whole entry): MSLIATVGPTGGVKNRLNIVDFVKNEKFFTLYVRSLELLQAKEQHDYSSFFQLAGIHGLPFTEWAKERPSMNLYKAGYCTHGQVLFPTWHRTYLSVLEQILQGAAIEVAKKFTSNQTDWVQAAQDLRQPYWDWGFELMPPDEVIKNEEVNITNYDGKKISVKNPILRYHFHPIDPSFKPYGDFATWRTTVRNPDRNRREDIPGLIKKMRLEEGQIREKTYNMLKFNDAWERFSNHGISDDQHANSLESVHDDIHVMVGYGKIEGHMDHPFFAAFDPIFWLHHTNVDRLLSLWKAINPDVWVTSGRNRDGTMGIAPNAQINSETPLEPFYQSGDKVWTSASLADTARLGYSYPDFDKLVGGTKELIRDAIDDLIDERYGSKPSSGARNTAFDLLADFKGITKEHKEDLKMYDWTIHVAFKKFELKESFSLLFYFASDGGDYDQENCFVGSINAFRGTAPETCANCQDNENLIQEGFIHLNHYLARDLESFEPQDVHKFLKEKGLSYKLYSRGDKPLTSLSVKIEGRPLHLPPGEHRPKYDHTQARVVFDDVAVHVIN
Description: Inhibition of mushroom tyrosinase after 20 mins by microplate reader analysis

Assay [2] has as its system RAW264.7. In words: cells. To be noted: Mus musculus.
Description: Antiinflammatory activity in mouse RAW264.7 cells assessed as inhibition of LPS-induced nitric oxide production treated for 30 mins before LPS challenge measured after 24 hrs by Griess reagent method
The test system of assay [3] is RAW264.7. In words: cells. As to conditions: Mus musculus, RAW264.7, 24 h.
Description: Cytotoxicity against mouse RAW264.7 cells after 24 hrs by MTT assay

Each structure is given as a SMILES string. Where only a bound is given, the exact number is not on record here.

For orientation: IC50 means the midpoint of a concentration-inhibition curve. A lower IC50 goes with greater potency in that assay. Turning to `O=c1cc(CSC2CCCCC2)occ1O`, the concentration for half-maximal inhibition (IC50) in assay [1] is 0.087 µM; in assay [2], 56.9 µM; in assay [3], over 100 µM.

Take `CCCCCCCSCc1cc(=O)c(O)co1`: the IC50 in assay [1] was 2.65 µM; in assay [2], over 100 µM; in assay [3] it was 98.3 µM.

Turning to `CCSCc1cc(=O)c(O)co1`, the IC50 in assay [1] is 2.6 µM; in assay [2], over 100 µM; in assay [3], over 100 µM.

On to `CCCSCc1cc(=O)c(O)co1`, for which the IC50 was 1.93 µM in assay [1], over 100 µM in assay [2] and over 100 µM in assay [3].

Turning to `CCCCCSCc1cc(=O)c(O)co1`, the results for the IC50 in assay [1], in assay [2] and in assay [3] were 0.097 µM, 62 µM and over 100 µM, respectively.

For the compound `CCCCSCc1cc(=O)c(O)co1`, the half-maximal inhibitory concentration (IC50) was 1.48 µM in assay [1], over 100 µM in assay [2] and over 100 µM in assay [3].

On to `CCCCCCSCc1cc(=O)c(O)co1`, for which the IC50 in assay [1] is 0.19 µM; in assay [2], 25.8 µM; in assay [3], over 100 µM.

As to `CCCCCCS(=O)(=O)Cc1cc(=O)c(O)co1`, the IC50 in assay [1] is 49.1 µM; in assay [2], over 100 µM; in assay [3], over 100 µM.

As for `CCCCCC[S+]([O-])Cc1cc(=O)c(O)co1` (configuration not stated), the IC50 in assay [1] is 73.8 µM; in assay [2], over 100 µM; in assay [3] it was over 100 µM.

Regarding `O=c1cc(CS(=O)(=O)C2CCCCC2)occ1O`, the IC50 is 69 µM in assay [1], over 100 µM in assay [2] and over 100 µM in assay [3].

Turning to `CCCCCCCCSCc1cc(=O)c(O)co1`, the IC50 in assay [1] was 46.2 µM; in assay [2], over 100 µM; in assay [3], over 100 µM.

As to `O=c1cc(C[S+]([O-])C2CCCCC2)occ1O` (configuration not stated), the IC50 is 79 µM in assay [1], over 100 µM in assay [2] and over 100 µM in assay [3].

As for `CCCCCS(=O)(=O)Cc1cc(=O)c(O)co1`, the IC50 in assay [1] was 76.6 µM; in assay [2], over 100 µM; in assay [3], over 100 µM.

On to `CCCCC[S+]([O-])Cc1cc(=O)c(O)co1` (configuration not stated), for which the IC50 in assay [1] was 79.9 µM; in assay [2], over 100 µM; in assay [3], over 100 µM.

Values taken from ChEMBL document CHEMBL1268992, “Kojyl thioether derivatives having both tyrosinase inhibitory and anti-inflammatory properties” (Bioorg Med Chem Lett, 2010).
